Source: ChEMBL document CHEMBL4418485, “Klf5 modulators” (2015)
The source made the active and inactive calls. No cut-off for these calls is given here.

Key:
[1] = test system: DLD-1; test: Cell cycle arrest in human DLD1 cells assessed as accumulation at G2/M phase accumulation after 48 hrs (reference value: 58.17 +/- 4.4%); format: functional
[2] = test system: HT-29; test: Reduction in KLF5 protein expression in human HT-29 cells at 10 uM by gel electrophoresis and autoradiography; format: functional, cell-based
[3] = test system: DLD-1; test: Cell cycle arrest in human DLD1 cells assessed as accumulation at subG1 phase accumulation after 24 hrs (reference value: 0.81 +/- 0.13%); format: functional
[4] = test system: DLD-1; test: Cell cycle arrest in human DLD1 cells assessed as accumulation at subG1 phase accumulation after 48 hrs (reference value: 1.27 +/- 0.15%); format: functional
[5] = test system: SW-620; test: Reduction in KLF5 protein expression in human SW620 cells at 10 uM by gel electrophoresis and autoradiography; format: functional, cell-based
[6] = test system: HCT-116; test: Reduction in KLF5 protein expression in human HCT116 cells at 10 uM by gel electrophoresis and autoradiography; format: functional, cell-based
[7] = test system: IEC-6; test: Growth inhibition of rat IEC-6 cells relative to control; format: cell-based
[8] = test system: DLD-1; test: Cell cycle arrest in human DLD1 cells assessed as accumulation at S phase accumulation after 24 hrs (reference value: 18.05 +/- 1.13%); format: functional
[9] = test system: DLD-1; test: Reduction in KLF5 protein expression in human DLD1 cells at 10 uM by gel electrophoresis and autoradiography; format: functional, cell-based
[10] = test system: DLD-1; test: Cell cycle arrest in human DLD1 cells assessed as accumulation at S phase accumulation after 48 hrs (reference value: 8.06 +/- 1.35%); format: functional
[11] = test system: DLD-1; test: Cell cycle arrest in human DLD1 cells assessed as accumulation at G2/M phase accumulation after 24 hrs (reference value: 46.58 +/- 3.73%); format: functional
[12] = test system: DLD-1; test: Cell cycle arrest in human DLD1 cells assessed as accumulation at G1 phase accumulation after 48 hrs (reference value: 32.63 +/- 3.18%); format: functional
[13] = test system: DLD-1; test: Cell cycle arrest in human DLD1 cells assessed as accumulation at G1 phase accumulation after 24 hrs (reference value: 34.78 +/- 2.58%); format: functional

SMILES | Activity [1] [%] | Activity [2] | Activity [3] [%] | Activity [4] [%] | Activity [5] | Activity [6] | growth inhibition (GI) [7] [%] | Activity [8] [%] | Activity [9] | Activity [10] [%] | Activity [11] [%] | Activity [12] [%] | Activity [13] [%]
CN(C(=O)CNC(=O)/C=C/c1cccc(Cl)c1)C1CCS(=O)(=O)CC1 | 39.36 | Active | 7.82 | 9.63 | Active | Active | < 50 | 18.47 | Active | 19.74 | 29.81 | 31.58 | 44.15
CN(C(=O)CNC(=O)/C=C/c1cccc(Cl)c1)C1CCS(=O)(=O)C1 (stereo not given) | – | inactive | – | – | inactive | inactive | – | – | inactive | – | – | – | –
CN(C(=O)CNC(=O)/C=C/c1cccc([N+](=O)[O-])c1)C1CCS(=O)(=O)C1 (stereo not given) | – | inactive | – | – | inactive | inactive | – | – | inactive | – | – | – | –
CN(C(=O)COC(=O)/C=C/c1cccc([N+](=O)[O-])c1)C1CCS(=O)(=O)C1 (stereo not given) | – | inactive | – | – | inactive | inactive | – | – | inactive | – | – | – | –
